Data from patent US12075778B2, “Inhibitor for resisting muskmelon powdery mildew as well as preparation method and application thereof” (Northeast Agricultural University, priority 2022, dated 2024).

Columns and labels:
[1] = tested on: pathogen of muskmelon gummy stem blight; assay: Plate experiment of inhibitory effect on pathogen of muskmelon gummy stem blight (PDA medium); type: cell-based; settings: allantoin aqueous solution 700 mg/L and 1050 mg/L smeared on PDA plates, 7 days, 28° C.
Description: Based on the purpose of study, the inventor designed a plate experiment. Considering that powdery mildew is a living parasitic fungi and can only grow and reproduce on living plants, a PDA medium cannot be used for culturing, so that pathogen of muskmelon gummy stem blight is used for experiment. The specific experiment method is as follows: a PDA medium was prepared and poured into plates; equal amounts of an allantoin aqueous solution with the concentration of 700 mg/L, an allantoin aqueous solution with the concentration of 1050 mg/L and sterile water were respectively smeared on three plates, and then a bacterial cake of the pathogen of muskmelon gummy stem blight was inoculated in the center of each plate; the plates were cultured for 7 days under 28° C., and the growth of the pathogen of muskmelon gummy stem blight in the three plates was observed.

muskmelon powdery mildew = assay: Resistance to powdery mildew of muskmelon plants sprayed with allantoin aqueous solution and inoculated with spore suspension (greenhouse); type: in vivo, Podosphaera xanthii; settings: for plant morbidity: inoculated 24 h after first spraying
Description: Preparation and inoculation of pathogen spore suspension of muskmelon powdery mildew:
Muskmelon leaves with severe powdery mildew were randomly selected from the field, and conidia were transferred to a beaker containing sterile water by a brush and uniformly stirred to obtain the spore suspension of powdery mildew. Spore concentration was measured under an optical microscope by using a blood counting chamber, and the concentration of the spore suspension was adjusted to be 1×10^6spores/mL for later use, which was used for inoculation tests. It was identified that this bacterial suspension was the bacterial suspension of muskmelon powdery mildew.
Muskmelon seedlings were planted in a greenhouse in June. When the muskmelon seedlings grown to the spreading stage, they were divided into a blank group, a pathogen inoculation group, a negative control group and an experimental group. […] The negative control group was sprayed with the sterile water at 5:00 pm to 6:00 pm, spraying was carried out once every three days, and the spraying amount of each time was the same as that of the aqueous solution containing allantoin in the experimental group. 24 hours after the first spraying of the allantoin water solution in the experimental group, the negative control group, the pathogen inoculation group and the experimental group were inoculated with the spore suspension of powdery mildew obtained above after the solution on the leaves was evaporated. After the pathogen inoculation group was infected with powdery mildew, the resistance to powdery mildew of the experimental group and the negative control group was observed (as shown in FIG. 1A-B), and the disease index, morbidity and control efficiency of the experimental group were calculated.
Leaf morphology was graded according to the response of the muskmelon leaves infected with powdery mildew. Grade 0: no infection; grade 1: no obvious infection; grade 2: mild infection; grade 3: moderate infection; grade 4: severe infection; and grade 5: whole-leaf infection. Disease index=sum of disease grade numbers of all leaves of an individual plant/number of leaves of the individual plant×the highest disease grade of the leaves of the individual plant Morbidity=number of infected individual plants/total number of investigated individual plants×100% Control efficiency=number of uninfected individual plants/total number of investigated individual plants×100%
Muskmelon seedlings were planted in a greenhouse in June. When the muskmelon seedlings grown to the three-leaves and one-bud stage, they were divided into a blank group, a pathogen inoculation group, a negative control group and an experimental group. The muskmelon leaves in the experimental group were sprayed with an aqueous solution containing allantoin with the concentration of 1050 mg/L at 5:00 pm to 6:00 pm, spraying was carried out once every three days, and a medicament was uniformly covered on the leaves for each time of spraying. The negative control group was sprayed with the sterile water at 5:00 pm to 6:00 pm, spraying was carried out once every three days, and the spraying amount of each time was the same as that of the aqueous solution containing allantoin in the experimental group. 24 hours after the first spraying of the allantoin water solution in the experimental group, the negative control group, the pathogen inoculation group and the experimental group were inoculated with the spore suspension of powdery mildew obtained above after the solution on the leaves was evaporated. After the pathogen inoculation group was infected with powdery mildew, the resistance to powdery mildew of the experimental group was observed (as shown in FIG. 2A-B), and the disease index, morbidity and control efficiency of the experimental group were calculated.

[2] = Example 3: 700 mg/L allantoin aqueous solution sprayed on leaves once every three days, spreading stage
[3] = Example 4: 1050 mg/L allantoin aqueous solution sprayed on leaves once every three days, three-leaves and one-bud stage

How did the “growth of the pathogen of muskmelon gummy stem blight on plate” value [1] turn out when NC(=O)NC1NC(=O)NC1=O (stereo not shown) [allantoin] was run?
The value was “does not inhibit the growth”.

And the control efficiency (muskmelon powdery mildew; [2])?
Its control efficiency is 100%.

And the disease index (muskmelon powdery mildew; [2])?
The disease index was 0.

What about the plant morbidity (muskmelon powdery mildew; [2]) of the same compound?
Its plant morbidity is 0%.

What about the “powdery mildew spots on the leaves” value (muskmelon powdery mildew; Example 3: 700 mg/L allantoin aqueous solution, spreading stage (FIG. 1A)) of the same compound?
The value was “no powdery mildew spot is generated on the leaves”.

What about the plant morbidity (muskmelon powdery mildew; Example 4: 1050 mg/L allantoin aqueous solution sprayed on leaves once every three days, three-leaves and one-bud (seedling) stage) of the same compound?
Its plant morbidity is 0%.

And the control efficiency (muskmelon powdery mildew; [3])?
The control efficiency was 100%.

What about the disease index (muskmelon powdery mildew; [3]) of the same compound?
Its disease index is 0.

And the “powdery mildew spots on the leaves” value (muskmelon powdery mildew; Example 4: 1050 mg/L allantoin aqueous solution, three-leaves and one-bud stage (FIG. 2))?
The value was “no powdery mildew spot is generated on the leaves”.

And the “control efficiency (summary statement)” value (muskmelon powdery mildew; aqueous solution containing allantoin sprayed on leaves in the spreading stage or the three-leaves and one-bud stage)?
Its value is no more than 100%.
